Experiments:
Type in all cases: functional
Mus musculus [1] = assay: Percentage inhibition of jumping was measured at 3 mg/kg dose.
Mus musculus [2] = assay: Mean jumps/mouse was measured at 3 mg/kg dose.
Mus musculus [3] = assay: Total jumps of mice was measured at 10 mg/kg dose.
Mus musculus [4] = assay: Mean jumps/mouse was measured at 10 mg/kg dose.
Mus musculus [5] = assay: Total jumps of mice was measured at 3 mg/kg dose.
Mus musculus [6] = assay: Percentage inhibition of jumping was measured at 10 mg/kg dose.

`CSCC1CC2c3cccc4[nH]nc(c34)CC2N(C)C1` (stereo unspecified) gave an inhibition in vivo at 3 mg/kg (Mus musculus [1]) of 47.9%, an Activity (Mus musculus [2]) of 426 and an Activity (Mus musculus [3]) of 6096. For the same compound, the Activity (Mus musculus [4]) was 508, the Activity (Mus musculus [5]) was 5113 and the inhibition in vivo at 10 mg/kg (Mus musculus [6]) was 49.6%.

Source: ChEMBL document CHEMBL1121431, “Preparation and biological evaluation of 2-azaergolines” (1980)
